# From patent publication US20240269139A1, “COMPOUNDS FOR TARGETED PROTEIN DEGRADATION OF KINASES” (DANA-FARBER CANCER INSTITUTE, INC., priority 2020, published 2024)
# Read-outs that look alike come from different tables or passages of the source.
# Columns and labels:
# Format in all cases: cell-based
# [1] = molecular target: T1, protein kinases (human kinome) (Homo sapiens, UniProt P33981); details: for logFC TTK: Accession P33981
# T1 sequence (P33981 1-857): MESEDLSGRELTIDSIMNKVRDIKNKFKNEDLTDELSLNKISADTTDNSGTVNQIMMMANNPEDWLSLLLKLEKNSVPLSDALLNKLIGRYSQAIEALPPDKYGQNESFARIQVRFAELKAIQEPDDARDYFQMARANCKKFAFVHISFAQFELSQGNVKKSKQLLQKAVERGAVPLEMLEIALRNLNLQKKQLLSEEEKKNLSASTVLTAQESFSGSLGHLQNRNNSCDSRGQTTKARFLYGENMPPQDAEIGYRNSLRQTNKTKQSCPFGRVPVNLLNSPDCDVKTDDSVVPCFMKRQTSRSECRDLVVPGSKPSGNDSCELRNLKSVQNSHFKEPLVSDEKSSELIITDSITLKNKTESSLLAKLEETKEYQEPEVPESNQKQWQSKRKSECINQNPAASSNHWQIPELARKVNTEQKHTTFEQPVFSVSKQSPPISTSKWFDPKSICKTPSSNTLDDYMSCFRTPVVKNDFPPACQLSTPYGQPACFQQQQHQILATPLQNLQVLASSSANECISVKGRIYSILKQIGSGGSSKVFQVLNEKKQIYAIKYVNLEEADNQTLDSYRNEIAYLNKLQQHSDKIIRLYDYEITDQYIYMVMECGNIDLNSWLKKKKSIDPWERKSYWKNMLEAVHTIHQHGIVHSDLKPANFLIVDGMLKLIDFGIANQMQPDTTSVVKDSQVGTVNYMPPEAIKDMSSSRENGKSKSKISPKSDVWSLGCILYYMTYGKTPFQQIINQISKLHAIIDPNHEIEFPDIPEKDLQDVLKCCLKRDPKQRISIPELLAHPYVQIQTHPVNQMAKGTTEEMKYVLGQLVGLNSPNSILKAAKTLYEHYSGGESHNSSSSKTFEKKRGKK
# [2] = molecular target: protein kinases (human kinome) (Homo sapiens, UniProt Q13233)
# protein kinases (human kinome) (Homo sapiens, UniProt Q13233), sequence (Q13233 whole entry): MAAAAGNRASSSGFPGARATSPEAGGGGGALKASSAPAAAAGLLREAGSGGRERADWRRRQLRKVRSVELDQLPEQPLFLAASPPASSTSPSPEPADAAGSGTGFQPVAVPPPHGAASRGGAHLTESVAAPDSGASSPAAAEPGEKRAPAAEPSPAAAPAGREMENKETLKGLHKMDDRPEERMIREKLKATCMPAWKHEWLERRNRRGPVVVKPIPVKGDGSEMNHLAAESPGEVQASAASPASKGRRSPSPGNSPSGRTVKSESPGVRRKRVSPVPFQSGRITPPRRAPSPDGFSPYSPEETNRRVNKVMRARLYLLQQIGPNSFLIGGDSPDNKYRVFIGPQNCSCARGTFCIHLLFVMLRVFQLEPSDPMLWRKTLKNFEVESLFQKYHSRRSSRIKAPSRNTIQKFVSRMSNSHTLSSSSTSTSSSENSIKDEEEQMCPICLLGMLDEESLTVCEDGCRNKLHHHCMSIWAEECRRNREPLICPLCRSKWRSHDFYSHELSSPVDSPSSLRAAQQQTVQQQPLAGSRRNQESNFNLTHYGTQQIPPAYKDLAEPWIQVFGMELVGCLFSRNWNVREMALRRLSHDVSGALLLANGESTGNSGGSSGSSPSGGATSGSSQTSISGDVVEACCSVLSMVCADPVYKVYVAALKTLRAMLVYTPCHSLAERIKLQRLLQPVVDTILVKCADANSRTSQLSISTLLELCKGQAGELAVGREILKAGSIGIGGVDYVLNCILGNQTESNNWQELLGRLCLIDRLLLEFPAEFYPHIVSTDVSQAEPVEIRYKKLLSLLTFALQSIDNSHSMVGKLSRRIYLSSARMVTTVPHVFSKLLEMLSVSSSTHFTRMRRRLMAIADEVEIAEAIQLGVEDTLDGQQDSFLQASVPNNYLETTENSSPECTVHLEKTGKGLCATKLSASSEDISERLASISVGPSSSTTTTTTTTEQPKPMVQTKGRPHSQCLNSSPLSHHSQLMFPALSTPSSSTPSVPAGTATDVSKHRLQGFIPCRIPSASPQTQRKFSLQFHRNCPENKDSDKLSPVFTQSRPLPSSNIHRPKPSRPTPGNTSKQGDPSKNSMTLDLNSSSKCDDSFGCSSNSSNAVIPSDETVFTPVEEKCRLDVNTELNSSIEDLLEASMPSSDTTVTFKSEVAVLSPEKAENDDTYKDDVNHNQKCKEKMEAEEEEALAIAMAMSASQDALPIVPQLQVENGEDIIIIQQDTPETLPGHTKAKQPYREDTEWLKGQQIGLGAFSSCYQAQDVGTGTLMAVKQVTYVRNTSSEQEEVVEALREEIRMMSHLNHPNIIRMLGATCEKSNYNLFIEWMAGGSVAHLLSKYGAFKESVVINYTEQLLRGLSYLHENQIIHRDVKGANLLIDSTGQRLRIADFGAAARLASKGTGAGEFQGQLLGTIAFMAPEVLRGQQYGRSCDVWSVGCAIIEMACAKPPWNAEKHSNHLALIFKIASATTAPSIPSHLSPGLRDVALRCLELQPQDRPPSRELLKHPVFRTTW
# [3] = molecular target: T2, protein kinases (human kinome) (Homo sapiens, UniProt Q8TAS1)
# T2 sequence (Q8TAS1 1-419): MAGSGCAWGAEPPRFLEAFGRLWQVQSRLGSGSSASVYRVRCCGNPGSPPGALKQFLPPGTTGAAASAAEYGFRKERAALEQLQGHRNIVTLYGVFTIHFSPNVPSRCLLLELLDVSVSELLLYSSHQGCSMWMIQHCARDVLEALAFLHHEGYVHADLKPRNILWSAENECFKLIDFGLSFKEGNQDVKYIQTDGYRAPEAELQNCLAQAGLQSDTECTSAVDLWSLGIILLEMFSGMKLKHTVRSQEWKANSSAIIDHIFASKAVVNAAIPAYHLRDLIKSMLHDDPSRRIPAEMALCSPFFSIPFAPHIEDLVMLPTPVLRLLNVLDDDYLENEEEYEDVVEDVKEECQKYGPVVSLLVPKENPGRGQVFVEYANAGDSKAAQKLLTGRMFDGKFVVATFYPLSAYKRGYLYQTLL
# [4] = molecular target: protein kinases (human kinome) (Homo sapiens, UniProt Q9HBH9); details: for logFC MKNK2 (Q9HBH9): Experiment wp152; for logFC: MKNK2 (Q9HBH9-1)
# protein kinases (human kinome) (Homo sapiens, UniProt Q9HBH9), sequence (Q9HBH9 whole entry): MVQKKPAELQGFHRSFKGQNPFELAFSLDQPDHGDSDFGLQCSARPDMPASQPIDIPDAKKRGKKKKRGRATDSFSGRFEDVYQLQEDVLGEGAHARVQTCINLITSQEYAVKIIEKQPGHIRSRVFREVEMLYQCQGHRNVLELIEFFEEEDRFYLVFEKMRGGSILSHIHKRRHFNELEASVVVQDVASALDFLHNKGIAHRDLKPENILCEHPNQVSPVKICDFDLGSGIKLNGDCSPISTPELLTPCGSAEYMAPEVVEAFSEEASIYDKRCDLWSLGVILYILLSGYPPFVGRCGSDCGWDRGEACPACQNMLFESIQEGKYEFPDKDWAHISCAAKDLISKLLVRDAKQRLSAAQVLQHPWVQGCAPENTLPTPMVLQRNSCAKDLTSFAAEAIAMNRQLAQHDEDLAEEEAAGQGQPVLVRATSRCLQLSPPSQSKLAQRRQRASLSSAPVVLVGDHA
# [5] = molecular target: protein kinases (human kinome) (Homo sapiens, UniProt Q8NI60)
# protein kinases (human kinome) (Homo sapiens, UniProt Q8NI60), sequence (Q8NI60 163-647): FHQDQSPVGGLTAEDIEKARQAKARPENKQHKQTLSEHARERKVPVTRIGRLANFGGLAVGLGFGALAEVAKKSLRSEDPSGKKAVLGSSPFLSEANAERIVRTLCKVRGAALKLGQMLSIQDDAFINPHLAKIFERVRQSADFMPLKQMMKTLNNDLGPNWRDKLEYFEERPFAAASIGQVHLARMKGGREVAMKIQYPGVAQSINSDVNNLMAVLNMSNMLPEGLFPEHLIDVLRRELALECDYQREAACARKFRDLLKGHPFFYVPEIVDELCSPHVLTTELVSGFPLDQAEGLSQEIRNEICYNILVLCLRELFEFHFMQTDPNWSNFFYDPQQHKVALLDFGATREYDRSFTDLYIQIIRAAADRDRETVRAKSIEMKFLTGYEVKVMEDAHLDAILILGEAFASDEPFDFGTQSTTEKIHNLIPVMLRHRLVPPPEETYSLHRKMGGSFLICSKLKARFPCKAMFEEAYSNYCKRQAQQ
# [6] = molecular target: T3, protein kinases (human kinome) (Homo sapiens, UniProt Q9UEE5); details: STK17A Q9UEE5
# T3 sequence (Q9UEE5 1-414): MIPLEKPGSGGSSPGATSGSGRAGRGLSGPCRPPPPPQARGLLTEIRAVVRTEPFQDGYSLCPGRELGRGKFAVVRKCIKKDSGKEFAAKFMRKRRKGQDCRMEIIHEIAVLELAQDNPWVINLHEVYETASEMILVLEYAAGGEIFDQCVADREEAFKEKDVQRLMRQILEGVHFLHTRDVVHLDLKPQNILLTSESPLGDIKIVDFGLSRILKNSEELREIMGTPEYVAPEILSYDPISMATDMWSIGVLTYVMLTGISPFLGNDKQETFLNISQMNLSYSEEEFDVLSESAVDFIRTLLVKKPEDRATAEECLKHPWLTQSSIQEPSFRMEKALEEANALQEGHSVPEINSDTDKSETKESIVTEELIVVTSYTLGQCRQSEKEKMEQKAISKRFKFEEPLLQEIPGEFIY
# [7] = Accession Q13233, experiment wp107, direction down
# [8] = MAP3K1 (Q13233), experiment wp107
# [9] = Accession Q8TAS1, experiment wp160, 2 hr, direction down
# [10] = Accession Q8TAS1, experiment wp160, 4 hr, direction down
# [11] = UHMK1 (Q8TAS1), experiment wp160, 2 hr
# [12] = UHMK1 (Q8TAS1), experiment wp160, 4 hr
compound,measurement,setting,value
"Cc1ccc(NC(=O)c2cccc(C(F)(F)F)c2)cc1N1Cc2cnc(Nc3ccc(N4CCN(Cc5cn(CCCCCOc6cccc7c6C(=O)N(C6CCC(=O)NC6=O)C7=O)nn5)CC4)nc3)nc2N(C)C1=O (centres unmarked) [DB0646, N-(3-(7-((6-(4-((1-(5-((2-(2,6-Dioxopiperidin-3-yl)-1,3-dioxoisoindolin-4-yl)oxy)pentyl)-1H-1,2,3-triazol-4-yl)methyl)piperazin-1-v)pyridin-3-yl)amino)-1-methyl-2-oxo-1,4-dihydropyrimido[4,5-d]pyrimidin-3(2H)-yl)-4-methylphenyl)-3-(trifluoromethyl)benzamide]",logFC TTK,[1]; experiment wp045,−0.5757
same,logFC TTK,[1]; experiment wp107,−0.372
same,logFC TTK,[1]; experiment wp117,−0.4267
same,logFC TTK,[1]; experiment wp152,−0.5131
same,logFC TTK,"[1]; experiment wp160, 4 hr",−0.513
same,logFC TTK,"[1]; experiment wp160, 8 hr",−0.7057
same,logFC TTK (P33981),[1]; experiment wp045,−0.5757
same,logFC TTK (P33981),[1]; experiment wp107,−0.372
same,logFC TTK (P33981),[1]; experiment wp117,−0.4267
same,logFC TTK (P33981),[1]; experiment wp152,−0.5131
same,logFC TTK (P33981),"[1]; experiment wp160, 4 hr",−0.513
same,logFC TTK (P33981),"[1]; experiment wp160, 8 hr",−0.7057
same,logFC MAP3K1,[2]; [7],−0.3767
same,logFC MAP3K1,"[2]; Accession Q13233, experiment wp152, direction down",−0.6139
same,logFC MAP3K1,"[2]; Accession Q13233, experiment wp160, 8 hr, direction down",−0.7241
same,logFC MAP3K1,[2]; [8],−0.3767
same,logFC MAP3K1,"[2]; MAP3K1 (Q13233), experiment wp152",−0.6139
same,logFC MAP3K1,"[2]; MAP3K1 (Q13233), experiment wp160, 8 hr",−0.7241
same,logFC UHMK1,"[3]; Accession Q8TAS1, experiment wp107, direction down",−0.3263
same,logFC UHMK1,"[3]; Accession Q8TAS1, experiment wp117, direction down",−0.4722
same,logFC UHMK1,[3]; [9],−0.4468
same,logFC UHMK1,[3]; [10],−0.7551
same,logFC UHMK1,"[3]; Accession Q8TAS1, experiment wp160, 8 hr, direction down",−0.5196
same,logFC UHMK1,"[3]; UHMK1 (Q8TAS1), experiment wp045",−0.3945
same,logFC UHMK1,"[3]; UHMK1 (Q8TAS1), experiment wp107",−0.3263
same,logFC UHMK1,"[3]; UHMK1 (Q8TAS1), experiment wp117",−0.4722
same,logFC UHMK1,[3]; [11],−0.4468
same,logFC UHMK1,[3]; [12],−0.7551
same,logFC UHMK1,"[3]; UHMK1 (Q8TAS1), experiment wp160, 8 hr",−0.5196
same,logFC UHMK1 (Q8TAS1),[3]; experiment wp045,−0.3945
same,logFC MKNK2 (Q9HBH9-1),"[4]; Experiment wp045, direction down",−0.4463
same,logFC MKNK2 (Q9HBH9-1),"[4]; Experiment wp117, direction down",−0.3794
same,logFC MKNK2 (Q9HBH9),[4]; direction down,−0.4447
same,logFC MKNK2 (Q9HBH9),[4]; direction of change down,−0.4447
same,logFC MKNK2 (Q9HBH9-1),"[4]; Experiment wp160, 4 hr, direction down",−0.5226
same,logFC MKNK2 (Q9HBH9-1),"[4]; Experiment wp160, 8 hr, direction down",−0.6422
same,logFC,[4]; experiment wp045,−0.4463
same,logFC,[4]; experiment wp117,−0.3794
same,logFC,"[4]; experiment wp160, 4 hr",−0.5226
same,logFC,"[4]; experiment wp160, 8 hr",−0.6422
Cc1ccc(C(=O)Nc2ccc(CN3CCN(CCCOCCOCCOCCNC(=O)COc4cccc5c4C(=O)N(C4CCC(=O)NC4=O)C5=O)CC3)c(C(F)(F)F)c2)cc1C#Cc1cnc2cccnn12 (centres unmarked) [SB1.G.187],logFC MAP3K1,"[2]; Accession Q13233, experiment wp056, direction down",−0.7809
same,logFC MAP3K1,"[2]; Accession Q13233, experiment wp103, direction down",−0.5815
same,logFC MAP3K1,[2]; [7],−0.6693
same,logFC MAP3K1,"[2]; MAP3K1 (Q13233), experiment wp056",−0.7809
same,logFC MAP3K1,"[2]; MAP3K1 (Q13233), experiment wp103",−0.5815
same,logFC MAP3K1,[2]; [8],−0.6693
same,logFC COQ8A (Q8N160-1),[5]; experiment wp056,−0.3885
same,logFC COQ8A (Q8NI60-1),[5]; experiment wp056,−0.3885
CC(C)S(=O)(=O)c1ccccc1Nc1nc(Nc2ccc(N3CCN(CCOCCNC(=O)CNc4cccc5c4C(=O)N(C4CCC(=O)NC4=O)C5=O)CC3)cc2)ncc1Cl (centres unmarked) [SK.3.91],logFC TTK,[1]; experiment wp103,−0.3267
same,logFC TTK,[1]; experiment wp107,−0.4781
same,logFC TTK,"[1]; experiment wp133, 2 hr",−0.3833
same,logFC TTK,"[1]; experiment wp133, 4 hr",−0.5052
same,logFC TTK (P33981),[1]; experiment wp103,−0.3267
same,logFC TTK (P33981),[1]; experiment wp107,−0.4781
same,logFC TTK (P33981),"[1]; experiment wp133, 2 hr",−0.3833
same,logFC TTK (P33981),"[1]; experiment wp133, 4 hr",−0.5052
same,logFC MAP3K1,"[2]; Accession Q13233, experiment wp105, direction down",−0.3258
same,logFC MAP3K1,"[2]; MAP3K1 (Q13233), experiment wp105",−0.3258
same,logFC COQ8A (Q8N160-1),"[5]; experiment wp160, 1 hr",−0.7959
same,logFC COQ8A (Q8NI60-1),"[5]; experiment wp160, 1 hr",−0.7959
same,logFC UHMK1,[3]; [9],−0.4144
same,logFC UHMK1,[3]; [10],−0.3959
same,logFC UHMK1,[3]; [11],−0.4144
same,logFC UHMK1,[3]; [12],−0.3959
same,logFC MKNK2 (Q9HBH9-1),"[4]; Experiment wp133, 1 hr, direction down",−0.5168
same,logFC MKNK2 (Q9HBH9-1),"[4]; Experiment wp133, 2 hr, direction down",−0.5303
same,logFC MKNK2 (Q9HBH9-1),"[4]; Experiment wp133, 4 hr, direction down",−0.8537
same,logFC,"[4]; experiment wp133, 1 hr",−0.5168
same,logFC,"[4]; experiment wp133, 2 hr",−0.5303
same,logFC,"[4]; experiment wp133, 4 hr",−0.8537
same,logFC,"[6]; experiment wp016, 1 uM",−0.7032
same,logFC STK17A,"[6]; experiment wp016, 1 uM",−0.7032
same,logFC,[6]; experiment wp103,−0.6201
same,logFC STK17A,[6]; experiment wp103,−0.6201
same,logFC,[6]; experiment wp107,−0.6984
same,logFC STK17A,[6]; experiment wp107,−0.6984
same,logFC,"[6]; experiment wp133, 4 hr",−0.5458
same,logFC STK17A,"[6]; experiment wp133, 4 hr",−0.5458
same,logFC,[6]; experiment wp172,−0.3963
same,logFC STK17A,[6]; experiment wp172,−0.3963
